Measurements published in patent US20230218604A1, “PPARy AGONIST FOR TREATMENT OF PROGRESSIVE [sequence] PALSY” (Coherus Biosciences, Inc., priority 2022, published 2023).
“And” between values parts separate entries of the source, which are not always exact repeats. Equal entries are not always repeated. “Also recorded” adds a separate entry of the source.

How the values were obtained:
[1] = RRMS study: serial cortical and whole brain volumetric MRI analysis; assay type: in vivo, human; conditions: 3 mg daily, 6 months
Protocol: (§1) 227 treatment-naive adult subjects (mean age 31 [range 18-50]; 65% female) were randomized into one of three arms: oral CHS-131 at 3 mg (n=76); oral CHS-131 at 1 mg (n=76); placebo (n=75), at 21 sites in Russia. 97% completed Part 1. Inclusion criteria: Relapsing Remitting Multiple Sclerosis (RRMS) for ≤3 years, ≥1 gadolinium-positive lesion within 1-year of enrollment, and an EDSS ≤ 6 at screening. The patients underwent monthly MRI examinations with contrast to identify new inflammatory lesions. All MRIs were read blinded at the Buffalo Neuroimaging Center (Buffalo, NY). In addition to CE lesions the images were scored for cumulative new/enlarged T2 lesions, and serial cortical and whole brain volumetric analysis.

adiponectin [2] = assay: 14-day study of serum adiponectin levels in healthy subjects; assay type: in vivo, human
Protocol: A study was conducted to determine the effect of INT131 on serum adiponectin levels. Thirty healthy subjects were randomly selected to receive either placebo, 0.1 mg INT131, 1 mg INT131 or 4 mg INT131 daily for 14 days. To measure adiponectin levels blood was drawn at Days 1, 4, 8 and 14.

[3] = RRMS study: monthly contrast MRI, cumulative CE lesions and new/enlarged T2 lesions; assay type: in vivo, human; conditions: for Reduction of CE lesion burden vs. placebo: 6 months; for Cumulative CE lesions over 6 months: complete case analysis
Protocol: as §1

HbA1c [4] = assay: 24-week randomized, double-blind, placebo-controlled study in type 2 diabetes: HbA1c levels; assay type: in vivo, human; conditions: 24 weeks
[5] = in vivo; cited from earlier work
[6] = subjects taking INT131 vs those taking pioglitazone; DePaoli et al. 2014; cited from earlier work
HbA1c [7] = conditions: DePaoli et al. Diabetes Care 2014; cited from earlier work
adiponectin [8] = assay: 24-week randomized, double-blind, placebo-controlled study in type 2 diabetes: serum adiponectin levels; assay type: in vivo, human; conditions: for Mean Adiponectin, Week 24 / Mean Change in adiponectin from baseline (Week 0) to Week 24 / Mean Adiponectin, Week 0: (SD); for Mean Change in adiponectin from baseline (Week 0) to Week 24: LOCF; for Mean Adiponectin, Week 0: baseline, type 2 diabetes subjects
Protocol: A randomized, double-blind, placebo-controlled, 24-week study was conducted in which adiponectin levels were measured. […] 367 subjects with type 2 diabetes (TD2)—a disease in which patient adiponectin levels are reduced—were randomly assigned to receive either 0.5, 1, 2 or 3 milligrams (“mg”) of INT131 besylate, 45 mg of pioglitazone or placebo daily for 24 weeks. To measure adiponectin levels blood was drawn at Weeks 0, 2, 6, 12 and 24. At baseline (Week 0) mean adiponectin levels were 1.94 micrograms per milliliter (“µg/mL”). The mean adiponectin levels at baseline and Week 24, and the mean change in adiponectin levels from baseline (Week 0) to Week 24 are disclosed in Table 1, below. The standard deviation for samples tested in each group is listed in (parenthesis). Mean baseline adiponectin values were similar for the treatment groups.

Compound: O=S(=O)(Nc1cc(Cl)c(Oc2cnc3ccccc3c2)c(Cl)c1)c1ccc(Cl)cc1Cl [INT131]
- Less cortical volume loss compared to placebo [1]: 34.2%
- Less whole brain volume loss compared to placebo [1]: 50%
- Change in serum adiponectin levels, Day 1 to Day 14 and over placebo (adiponectin [2]; 0.1 mg INT131 daily for 14 days): no significant change
- Change in serum adiponectin levels over placebo and from Day 1 to Day 14 (adiponectin [2]; 1 mg or 4 mg INT131 daily for 14 days): significant change
- Cumulative CE lesions over 6 months, LSMean ([3]; 1 mg oral): 5.15
- Reduction of CE lesion burden vs. placebo ([3]; 1 mg oral, p=ns): 21%
- Cumulative CE lesions over 6 months ([3]; 1 mg oral): 7.6
- Reduction of new/enlarged T2 lesions compared to placebo ([3]; 1 mg, p=ns): 14%
- Cumulative CE lesions over 6 months, LSMean ([3]; 3 mg daily oral): 3.10
- Reduction of CE lesion burden vs. placebo ([3]; 3 mg daily oral, p=0.003): 52%
- Cumulative CE lesions over 6 months ([3]; 3 mg daily oral): 4.2 lesions
- Reduction of new/enlarged T2 lesions compared to placebo ([3]; 3 mg, p=0.0767): 30%
- Reduction of HbA1c levels as compared to placebo (HbA1c [4]; 1, 2 and 3 mg doses of INT131 daily): statistically significant reduction
- Reduction of HbA1c levels compared with 45 mg of pioglitazone (HbA1c [4]; 2 and 3 mg doses of INT131 daily): at least as well as 45 mg of pioglitazone
- Crossing of the blood brain barrier [5]: more readily than other PPARγ agonists; also recorded: readily crosses the blood brain barrier
- Side effects versus pioglitazone [6]: less edema, weight gain, and hemodilution
- Efficacy in reducing HbA1c levels versus 45 mg of pioglitazone (HbA1c [7]): equally efficacious
- Mean Adiponectin, Week 24 (adiponectin [8]; 0.5 mg INT131 daily for 24 weeks): 2.28 (1.540) µg/mL
- Mean Change in adiponectin from baseline (Week 0) to Week 24 (adiponectin [8]; 0.5 mg INT131 daily): 0.56 µg/mL and 0.56 (0.906) µg/mL
- Mean Adiponectin, Week 0 (adiponectin [8]; 0.5 mg INT131 group): 1.73 (1.190) µg/mL
- Adiponectin levels, treatment comparison with pioglitazone 45 mg (adiponectin [8]; 0.5 mg, 1 mg and 3 mg doses of INT131, p≤0.0408): statistically significant
- Mean Adiponectin, Week 24 (adiponectin [8]; 1 mg INT131 daily for 24 weeks): 3.15 (2.533) µg/mL
- Mean Change in adiponectin from baseline (Week 0) to Week 24 (adiponectin [8]; 1 mg INT131 daily): 1.28 µg/mL and 1.28 (1.882) µg/mL
- Mean Adiponectin, Week 0 (adiponectin [8]; 1 mg INT131 group): 1.87 (1.217) µg/mL
- Adiponectin levels, treatment comparison with placebo (adiponectin [8]; 1 mg, 2 mg and 3 mg doses of INT131, p≤0.0109): statistically significant increase
- Mean Adiponectin, Week 24 (adiponectin [8]; 2 mg INT131 daily for 24 weeks): 5.14 (3.650) µg/mL
- Mean Change in adiponectin from baseline (Week 0) to Week 24 (adiponectin [8]; 2 mg INT131 daily): 3.27 µg/mL and 3.27 (3.002) µg/mL
- Mean Adiponectin, Week 0 (adiponectin [8]; 2 mg INT131 group): 1.87 (1.098) µg/mL
- Mean Adiponectin, Week 24 (adiponectin [8]; 3 mg INT131 daily for 24 weeks): 5.83 (4.826) µg/mL
- Mean Change in adiponectin from baseline (Week 0) to Week 24 (adiponectin [8]; 3 mg INT131 daily): 3.83 µg/mL and 3.83 (4.313) µg/mL
- Mean Adiponectin, Week 0 (adiponectin [8]; 3 mg INT131 group): 2.00 (1.215) µg/mL

Compound: CCc1ccc(CCOc2ccc(CC3SC(=O)NC3=O)cc2)nc1 (centres unmarked) [pioglitazone, reference compound]
- Mean Adiponectin, Week 24 (adiponectin [8]; 45 mg pioglitazone daily for 24 weeks): 5.28 (3.222) µg/mL
- Mean Change in adiponectin from baseline (Week 0) to Week 24 (adiponectin [8]; 45 mg pioglitazone daily): 2.96 µg/mL
- Mean Change in adiponectin from baseline (Week 0) to Week 24 (adiponectin [8]; 45 mg pioglitazone daily, listed as Pioglitazone): 2.96 (2.618) µg/mL
- Mean Adiponectin, Week 0 (adiponectin [8]; 45 mg pioglitazone group): 2.32 (2.185) µg/mL
